Literature values, collected in US20060120979A1, “Skin care composition comprising hydroquinone and a substantially anhydrous base” (priority 2004, published 2006).

solubility in alcohols (alcohols): freely soluble
solubility in water (water): less soluble
SMILES: Oc1ccc(O)cc1 [Hydroquinone]
